Measurements from patent US11078202B2, “β-lactamase inhibitor and use thereof” (priority 2018, dated 2021).
Counter-ions that a name gives are not always drawn.

How the values were obtained:
Format in all cases: cell-based
[1] = test system: Klebsiella pneumoniae XNWB 0001; assay: MIC assay of test compounds combined with ceftazidime (8 μg/mL); conditions: ceftazidime 8 μg/mL fixed
Experimental: (§1) The bacterial strains used for the minimum inhibitory concentration (MIC) test were frozen in a −80° C. ULT freezer and thawed 2 days before use. A small amount of frozen bacterial strains were scraped using a sterile inoculating loop, streaked onto a TSA solid culture dish for inoculation, and then cultured for 20-24 h at 35±2° C. in a normal atmospheric environment. 5-10 colonies with similar morphology were picked from the culture dish using a sterile inoculating loop and then re-streaked onto a suitable solid culture dish. Then the dish was placed into a normal incubator for culture for 20-24 h at 35±2° C. 5-10 single bacterial colonies were picked from the solid culture dish, resuspended in 500 μL of 0.9% NaCl, and adjusted to an OD600 of 0.1-0.15 with a spectrophotometer. The bacteria were then diluted 300-fold with 1.1×CAMHB. […] Dilution of test compounds: […] 2 μL of each compound in the dilution master plate of the test compounds was transferred to the corresponding well of the assay plates. In the mean time, 2 μL of 100% DMSO was transferred to the compound-free wells (GC and SC wells). (1) 8 μL of imipenem in the additive plate of imipenem was transferred to the corresponding wells of the assay plates; (2) 8 μL of ceftazidime in the additive plate of ceftazidime was transferred to the corresponding wells of the assay plates; (3) 8 μL of ampicillin in the additive plate of ampicillin was transferred to the corresponding wells of the assay plates. 90 μL of corresponding bacterial inocula were added to wells (except for SC wells) of the assay plates. After addition, the 6 assay plates were covered by sterile covers. The mixtures in the assay plates were centrifuged by a centrifuge at 1000 rpm for 30 s, and mixed uniformly by oscillating with a microplate oscillator at 800 rpm for 1 min, and then cultured in a common incubator for 16-20 h at 35±2° C. The minimum inhibitory concentration of each compound was recorded by reference to guidelines from the Clinical and Laboratory Standards Institute. […] The effect of the test compounds in combination with imipenem, ceftazidime, and ampicillin was also tested. […] The bacterial inocula in the assay plates were resuscitated from TSA and diluted in CAMHB, while growth controls (GC wells) and sterile controls (SC wells) were set up in the assay plates. The minimum inhibitory concentration of each compound combination against different bacteria was observed and recorded after the assay plates were incubated in a common incubator at 35±2° C. for 16-20 h, and the results are shown in Tables 1-3.

[2] = test system: Klebsiella pneumoniae XNWB 0006; assay: as above; conditions: ceftazidime 8 μg/mL fixed
Experimental: as §1

[3] = test system: Klebsiella pneumoniae XNWB 0005; assay: as above; conditions: ceftazidime 8 μg/mL fixed
Experimental: as §1

[4] = test system: Klebsiella pneumoniae XNWB 0003; assay: as above; conditions: ceftazidime 8 μg/mL fixed
Experimental: as §1

[5] = test system: Klebsiella pneumoniae XNWB 0004; assay: as above; conditions: ceftazidime 8 μg/mL fixed
Experimental: as §1

[6] = test system: Pseudomonas aeruginosa XNWB 0008; assay: as above; conditions: ceftazidime 8 μg/mL fixed
Experimental: as §1

[7] = test system: Klebsiella pneumoniae XNWB 0002; assay: as above; conditions: ceftazidime 8 μg/mL fixed
Experimental: as §1

[8] = test system: Acinetobacter baumannii XNWB 0007; assay: as above; conditions: ceftazidime 8 μg/mL fixed
Experimental: as §1

[9] = test system: Klebsiella pneumoniae XNWB 0001; assay: MIC assay of test compounds combined with imipenem (4 μg/mL); conditions: imipenem 4 μg/mL fixed
Experimental: as §1

[10] = test system: Klebsiella pneumoniae XNWB 0006; assay: as above; conditions: imipenem 4 μg/mL fixed
Experimental: as §1

[11] = test system: Klebsiella pneumoniae XNWB 0005; assay: as above; conditions: imipenem 4 μg/mL fixed
Experimental: as §1

[12] = test system: Klebsiella pneumoniae XNWB 0003; assay: as above; conditions: imipenem 4 μg/mL fixed
Experimental: as §1

[13] = test system: Klebsiella pneumoniae XNWB 0004; assay: as above; conditions: imipenem 4 μg/mL fixed
Experimental: as §1

[14] = test system: Pseudomonas aeruginosa XNWB 0008; assay: as above; conditions: imipenem 4 μg/mL fixed
Experimental: as §1

[15] = test system: Klebsiella pneumoniae XNWB 0002; assay: as above; conditions: imipenem 4 μg/mL fixed
Experimental: as §1

[16] = test system: Acinetobacter baumannii XNWB 0007; assay: as above; conditions: imipenem 4 μg/mL fixed
Experimental: as §1

Compound | The minimum concentration of test compounds combined with ceftazidime (8 μg/mL) for bacteriostasis [1] | The minimum concentration of test compounds combined with ceftazidime (8 μg/mL) for bacteriostasis [2] | The minimum concentration of test compounds combined with ceftazidime (8 μg/mL) for bacteriostasis [3] | The minimum concentration of test compounds combined with ceftazidime (8 μg/mL) for bacteriostasis [4] | The minimum concentration of test compounds combined with ceftazidime (8 μg/mL) for bacteriostasis [5] | The minimum concentration of test compounds combined with ceftazidime (8 μg/mL) for bacteriostasis [6] | The minimum concentration of test compounds combined with ceftazidime (8 μg/mL) for bacteriostasis [7] | The minimum concentration of test compounds combined with ceftazidime (8 μg/mL) for bacteriostasis [8] | The minimum concentration of test compounds combined with imipenem (4 μg/mL) for bacteriostasis [9] | The minimum concentration of test compounds combined with imipenem (4 μg/mL) for bacteriostasis [10] | The minimum concentration of test compounds combined with imipenem (4 μg/mL) for bacteriostasis [11] | The minimum concentration of test compounds combined with imipenem (4 μg/mL) for bacteriostasis [12] | The minimum concentration of test compounds combined with imipenem (4 μg/mL) for bacteriostasis [13] | The minimum concentration of test compounds combined with imipenem (4 μg/mL) for bacteriostasis [14] | The minimum concentration of test compounds combined with imipenem (4 μg/mL) for bacteriostasis [15] | The minimum concentration of test compounds combined with imipenem (4 μg/mL) for bacteriostasis [16]
O=C(NC1CCNCC1)[C@@H]1CC[C@@H]2CN1C(=O)N2OS(=O)(=O)O [Relebactam, reference compound] | A (A: <8 μg/mL) | A (A: <8 μg/mL) | A (A: <8 μg/mL) | A (A: <8 μg/mL) | A (A: <8 μg/mL) | A (A: <8 μg/mL) | A (A: <8 μg/mL) | C (C: 16-128 μg/mL) | A (A: <8 μg/mL) | A (A: <8 μg/mL) | A (A: <8 μg/mL) | A (A: <8 μg/mL) | A (A: <8 μg/mL) | A (A: <8 μg/mL) | A (A: <8 μg/mL) | C (C: 16-128 μg/mL)
NCC(O)c1nnc([C@@H]2CC3(CC3)[C@@H]3CN2C(=O)N3OS(=O)(=O)O)o1 (stereo partly drawn) [Example 9, (1R,4S)-4-(5-(2-amino-1-hydroxyethyl)-1,3,4-oxadiazol-2-yl)-6-oxo-5,7-diazaspiro [bicyclo[3.2.1]octane-2,1′-cyclopropan]-7-yl sulfate] | A (A: <8 μg/mL) | A (A: <8 μg/mL) | A (A: <8 μg/mL) | A (A: <8 μg/mL) | A (A: <8 μg/mL) | B (B: 8-16 μg/mL) | A (A: <8 μg/mL) | C (C: 16-128 μg/mL) | A (A: <8 μg/mL) | A (A: <8 μg/mL) | A (A: <8 μg/mL) | A (A: <8 μg/mL) | A (A: <8 μg/mL) | A (A: <8 μg/mL) | A (A: <8 μg/mL) | A (A: <8 μg/mL)
NCCNC[C@H](O)c1nnc([C@@H]2CC3(CC3)[C@@H]3CN2C(=O)N3OS(=O)(=O)O)o1 [Example 31, (1R,4S)-4-(5-((S)-2-((2-aminoethyl)amino)-1-hydroxyethyl)-1,3,4-oxadiazol-2-yl)-6-oxo-5,7-diazaspiro[bicyclo[3.2.1]octane-2,1′-cyclopropan]-7-yl sulfate] | A (A: <8 μg/mL) | A (A: <8 μg/mL) | A (A: <8 μg/mL) | A (A: <8 μg/mL) | B (B: 8-16 μg/mL) | C (C: 16-128 μg/mL) | A (A: <8 μg/mL) | C (C: 16-128 μg/mL) | A (A: <8 μg/mL) | A (A: <8 μg/mL) | A (A: <8 μg/mL) | A (A: <8 μg/mL) | A (A: <8 μg/mL) | B (B: 8-16 μg/mL) | A (A: <8 μg/mL) | B (B: 8-16 μg/mL)
N=C(N)NC[C@H](O)c1cc([C@@H]2CC3(CC3)[C@@H]3CN2C(=O)N3OS(=O)(=O)O)no1 [Example 39, (1R,4S)-4-(5-((S)-2-guanidyl-1-hydroxyethyl)isoxazol-3-yl)-6-oxo-5,7-diazaspiro [bicyclo[3.2.1]octane-2,1′-cyclopropan]-7-yl sulfate] | A (A: <8 μg/mL) | A (A: <8 μg/mL) | A (A: <8 μg/mL) | A (A: <8 μg/mL) | A (A: <8 μg/mL) | B (B: 8-16 μg/mL) | A (A: <8 μg/mL) | C (C: 16-128 μg/mL) | A (A: <8 μg/mL) | A (A: <8 μg/mL) | A (A: <8 μg/mL) | A (A: <8 μg/mL) | A (A: <8 μg/mL) | A (A: <8 μg/mL) | A (A: <8 μg/mL) | B (B: 8-16 μg/mL)
N=C(N)NCCNCCc1cc([C@@H]2CC3(CC3)[C@@H]3CN2C(=O)N3OS(=O)(=O)O)no1 [Example 53, (1R,4S)-4-(5-(2-((2-guanidinoethyl)amino)ethyl)isoxazol-3-yl)-6-oxo-5,7-diazaspiro [bicyclo[3.2.1]octane-2,1′-cyclopropan]-7-yl sulfate] | A (A: <8 μg/mL) | A (A: <8 μg/mL) | A (A: <8 μg/mL) | A (A: <8 μg/mL) | B (B: 8-16 μg/mL) | B (B: 8-16 μg/mL) | A (A: <8 μg/mL) | C (C: 16-128 μg/mL) | A (A: <8 μg/mL) | A (A: <8 μg/mL) | A (A: <8 μg/mL) | A (A: <8 μg/mL) | A (A: <8 μg/mL) | A (A: <8 μg/mL) | A (A: <8 μg/mL) | C (C: 16-128 μg/mL)
